“And” between values parts separate entries of the source, which are not always exact repeats. Equal values may be shown once. Read-outs that look alike come from different tables or passages of the source.
Tests used:
[1] = test system: L929: NCTC clone 929, mouse fibroblast cell line; assay: Cytotoxicity in normal mammalian cells (L929); assay type: cell-based; settings: L929, 24 h, 0.01-100 μM, read-out: IC50 of compounds in various normal mammalian cells
[2] = test system: CHO-K1: Chinese hamster ovary cell line; assay: Cytotoxicity in normal mammalian cells (CHO-K1); assay type: cell-based; settings: Cricetulus griseus; CHO-K1, 24 h, 0.01-100 μM; read-out: IC50 of compounds in various normal mammalian cells
[3] = test system: Salmonella typhimurium TA100; settings: for Ames test outcome versus vehicle control: TA100, 48 h, J2 40 μg/plate, NA49 200 μg/plate
Method: (§1) To perform the Ames test of J2 and NA49, the number of revertant colonies was counted on each compound-treated plate at the maximum concentration at which the compound was soluble and nontoxic to the S. typhimurium tester strains (Supplementary Material S1). The ratio of the number of revertant colonies in the treated plate to colonies in the vehicle plate. […] For the hERG K^+ channel binding assay of J2 and NA49, the inhibitory activity against the hERG K^+ channel and its ligand was measured using a red fluorescent hERG channel ligand tracer. The final activity was assessed as a decrease in the degree of fluorescence polarization. […]
(§2) The test was conducted with maximum concentration at which the compound was
(§3) soluble and nontoxic to the S. typhimurium tester strains. #Factor = No. of revertant colonies
(§4) of treated plate colonies of vehicle control plate. […]

[4] = test system: Salmonella typhimurium TA98; settings: for Ames test outcome versus vehicle control: TA98, 48 h, J2 40 μg/plate, NA49 200 μg/plate
Method: as §1, §2, §3, §4

[5] = test system: hERG K+ channel; assay: hERG K+ channel binding assay (fluorescence polarization, red fluorescent tracer); settings: human, probe red fluorescent hERG channel ligand tracer; concentration treated 10 μM
Method: as §1
For hERG K+ channel binding […]
assay, measuring the inhibitory activity against the hERG K+ channel and its ligand using red fluorescent hERG channel ligand tracer. Final activity was assessed by the decrease in fluorescence polarization degree.

[6] = Log P by pH-metric method; assay type: physicochemical
[7] = PAMPA permeability assay; assay type: in vitro ADME; settings: for Papp: read-out: Cell Permeability Log Papp (converted)
Method: (§7) Permeability was evaluated with a parallel artificial membrane permeability (PAMPA) assay using an artificially generated lipid-infused membrane.

[8] = Liver microsomal phase I stability assay (human); assay type: in vitro ADME; settings: human liver microsomes
[9] = In vitro human plasma stability; assay type: in vitro ADME; settings: for Half-life predicted from in vitro plasma stability: human plasma
Method: as §7

[10] = molecular target: CYP450 2C19 (Homo sapiens, UniProt P33261); assay: CYP450 enzyme inhibition, 2C19; assay type: in vitro ADME; settings: compound 0.05~50 μM; read-out: IC50 against CYP450 isotype 2C19
Chain of CYP450 2C19 (P33261 whole entry): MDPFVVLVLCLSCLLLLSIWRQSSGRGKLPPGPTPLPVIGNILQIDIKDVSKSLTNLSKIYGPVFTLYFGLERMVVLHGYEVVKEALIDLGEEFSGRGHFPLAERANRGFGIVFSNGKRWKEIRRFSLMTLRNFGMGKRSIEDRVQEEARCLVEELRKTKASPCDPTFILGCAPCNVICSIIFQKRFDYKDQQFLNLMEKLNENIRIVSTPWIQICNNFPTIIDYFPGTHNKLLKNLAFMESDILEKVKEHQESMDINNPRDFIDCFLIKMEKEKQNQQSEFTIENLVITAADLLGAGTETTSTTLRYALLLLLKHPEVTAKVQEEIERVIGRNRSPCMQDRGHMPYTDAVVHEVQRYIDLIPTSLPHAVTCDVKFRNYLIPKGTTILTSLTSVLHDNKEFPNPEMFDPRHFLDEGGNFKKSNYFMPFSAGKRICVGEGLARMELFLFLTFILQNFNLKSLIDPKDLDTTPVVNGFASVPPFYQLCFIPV
Method: as §7

[11] = molecular target: CYP450 2D6 (Homo sapiens, UniProt P10635); assay: CYP450 enzyme inhibition, 2D6; assay type: in vitro ADME; settings: compound 0.05~50 μM; read-out: IC50 against CYP450 isotype 2D6
Chain of CYP450 2D6 (P10635 whole entry): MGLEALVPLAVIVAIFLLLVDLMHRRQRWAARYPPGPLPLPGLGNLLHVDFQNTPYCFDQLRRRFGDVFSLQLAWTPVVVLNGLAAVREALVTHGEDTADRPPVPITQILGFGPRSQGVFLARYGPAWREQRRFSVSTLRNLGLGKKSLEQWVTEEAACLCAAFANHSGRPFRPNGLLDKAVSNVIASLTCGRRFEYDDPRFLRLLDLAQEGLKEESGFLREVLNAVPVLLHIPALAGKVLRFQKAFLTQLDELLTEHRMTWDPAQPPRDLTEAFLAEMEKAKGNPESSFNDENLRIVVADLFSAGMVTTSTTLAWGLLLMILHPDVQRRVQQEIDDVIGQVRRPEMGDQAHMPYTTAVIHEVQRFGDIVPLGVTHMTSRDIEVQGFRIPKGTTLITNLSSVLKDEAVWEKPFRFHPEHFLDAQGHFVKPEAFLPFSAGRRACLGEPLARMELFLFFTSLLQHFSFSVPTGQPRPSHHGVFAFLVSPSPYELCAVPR

[12] = Single-dose IV toxicity in ICR mice; assay type: in vivo, mouse; settings: male, mouse, in vivo, not achieved by the maximum dose
From the text: (§5) Male Sprague–Dawley rats (7-week-old) and male Institute of Cancer Research (ICR) mice (5-week-old) were purchased from Orient Bio (Seongnam, Korea) and Samtako Bio (Osan, Korea), respectively. The experimental animals were housed under conventional conditions and fasted overnight before surgery for catheterization. All procedures for animal experiments were in accordance with the guidelines by the Ewha Woman’s University Institutional Animal Care and Use Committee (IACUC, 15-049 and 16-062), Korea.
(§6) For single-dose toxicity study of each drug, ICR mice were divided into 6 groups of control (0.9% normal saline), vehicle, and four dosages of each inhibitor (n = 4 mice per group). Both inhibitors dissolved in the same solvent system as the pharmacokinetic study were administered to the mice by caudal vein injection at doses of 2.5, 7.5, 15 and 30 mg/kg. After a single administration, all mice were observed daily for general conditions including behavior, hair, eyes, and nose. In addition, body weight was measured on days 0, 3, 7, and 14 following IV administration.

[13] = test system: ICR mice; assay: Single-dose IV toxicity in ICR mice; assay type: in vivo, mouse; settings: 14 days, n = 4
From the text: as §5, §6

[14] = Stability tests of the analytes (HPLC method validation, rat plasma); assay type: physicochemical; settings: for Stability of standard stock solution: 1 mg/mL
Method: pounds. The analytical method of the analytes was validated by FDA Bioanalytical Method Validation Guidance for Industry. The chromatogram of the rat plasma spiked with J2 and SW15 (IS) or NA49 and NA27 was compared with that of the blank rat plasma in order to confirm the specificity of the analytical method. The calibration curves of J2 and NA49 in rat plasma was built for nine concentration levels in the range of 0.025–10 µg/mL. The sensitivity of detection was evaluated by the lower limit of quantification […]
than the baseline noise. The intra-day precision and accuracy were estimated by analyzing five sets of four quality control (QC) samples (0.025, 0.05, 0.5 and 5 µg/mL) in the same day. The inter-day precision and accuracy were evaluated by analyzing a set of four QC samples on five different days. The precision was expressed as a coefficient of variation (CV%) by calculating the ratio of the standard deviation to the mean measured drug con-centration. The accuracy (%) was calculated by dividing a mean measured drug concen-tration by the theoretical drug concentration. The recovery of the analytes from the plasma samples was evaluated at low and high concentrations (0.05 and 5 µg/mL, respectively) by comparing the peak areas of the analytes after extraction to those before extraction. […]
The short-term stability tests were conducted at room temperature for 4 h for J2 and 6 h for […], while the long-term stability tests were performed at −20°C and −70°C for 2 weeks and 4 weeks, respectively. The stability of the analytes following three freeze-thaw cycles, the post-preparative stability and the stock solution stability were also exam-ined. Each blood sample collected from the experimental animals was transferred into an […]

[15] = TA100, with S-9 mix, J2 40, NA49 200, benzo(a)pyrene 2 μg/plate
[16] = TA100, without S-9 mix, J2 40, NA49 200 μg/plate
[17] = TA98, with S-9 mix, J2 40, NA49 200, benzo(a)pyrene 2 μg/plate
[18] = TA98, without S-9 mix, J2 40, NA49 200, positive controls 1-2 μg/plate

SMILES	IC50 [1] [µM]	IC50 [2] [µM]	Factor (revertant colonies of treated plate/vehicle control plate) [3, 15]	Revertant colonies/plate (Mean ± S.D.) [3, 15] [colonies/plate]	Factor (revertant colonies of treated plate/vehicle control plate) [3, 16]	Revertant colonies/plate (Mean ± S.D.) [3, 16] [colonies/plate]	Ames test outcome versus vehicle control [3]	Factor (revertant colonies of treated plate/vehicle control plate) [4, 17]	Revertant colonies/plate (Mean ± S.D.) [4, 17] [colonies/plate]	Factor (revertant colonies of treated plate/vehicle control plate) [4, 18]	Revertant colonies/plate (Mean ± S.D.) [4, 18] [colonies/plate]	Ames test outcome versus vehicle control [4]	inhibition at 10 μM [5] [%]	logP [6]	Cell permeability, rating [7]	Papp [7] [×10⁻⁶ cm/s]	In vitro Metabolic Stability (% of remaining after 30 min) [8] [%]	Half-life predicted from in vitro plasma stability [9]	In vitro Human Plasma Stability at 37 °C (% of remaining after 1 h) ([9]; treated with 0.5 μg/mL)	In vitro Human Plasma Stability at 37 °C (% of remaining after 1 h) ([9]; treated with 5 μg/mL)	also measured
Cc1cc(=O)c2c(O)cc(OCC3CS3)cc2o1 (stereo not drawn) [J2]	> 100	> 100	3.1	418 ± 9	6.0	643 ± 70	increased bacterial reverse mutation	3.8	65 ± 2	3.6	57 ± 7	increased bacterial reverse mutation	8.7 ± 2.22	2.78	low	12.6	47.8 ± 4.50	about 3 h	76.2% and 76.2 ± 0.72%	82.7% and 82.7 ± 0.73%	IC50 [10]: > 50 µM; IC50 [11]: > 50 µM; LD50 at 14 days [12]: > 30 mg/kg; Survival Rate (%) ([13]; 2.5 mg/kg): 100%; Survival Rate (%) ([13]; 7.5 mg/kg): 100%; Survival Rate (%) ([13]; 15 mg/kg): 100%; Survival Rate (%) ([13]; 30 mg/kg): 100%; Stability of post-preparative sample [14]: 102.2–103.4%; Stability of standard stock solution [14]: 113.2%; Stability after three freeze–thaw cycles, mean ([14]; low concentration (0.05 µg/mL)): 116.6%; Stability at −70°C for 4 weeks, mean ([14]; low concentration (0.05 µg/mL)): 115.2%
COc1ccc(-c2coc3cc(OCC4CS4)ccc3c2=O)c(OC)c1 (stereo not drawn) [NA49]	91.9	90.4	1.9	262 ± 11	2.0	229 ± 2	no significant increase	1.3	22 ± 2	1.2	19 ± 3	no significant increase	39 ± 3.9	3.04	moderate	32.4	24.9 ± 0.77	> 6 h	146.6% and 146.6 ± 0.01%	101.4% and 101.4 ± 0.13%	IC50 [10]: > 50 µM; IC50 [11]: > 50 µM; LD50 at 14 days [12]: > 30 mg/kg; Survival Rate (%) ([13]; 2.5 mg/kg): 100%; Survival Rate (%) ([13]; 7.5 mg/kg): 100%; Survival Rate (%) ([13]; 15 mg/kg): 100%; Survival Rate (%) ([13]; 30 mg/kg): 75%; Stability of post-preparative sample [14]: 96.9–102.4%; Stability of standard stock solution [14]: 98.7%
